Measured values as given in patent publication US12564580B2, “Mitochondria-targeted isoketal/isolevuglandin scavengers and uses thereof” (Vanderbilt University, priority 2020, dated 2026).

Columns and labels:
mPTP = assay type: in vivo; conditions: treatment of Ang II-infused mice with mito2HOBA
[1] = Tolerability in animal experiments; assay type: in vivo; conditions: doses from 0.1-0.3 g/L in drinking water
From the text: Mito2HOBA is a water-soluble compound which can be supplied in the media and provided to animals in the drinking water.

[2] = test system: SOD2 acetylation in human arterioles; assay: SOD2 acetylation in human arterioles treated ex vivo (Western blot); assay type: cell-based; conditions: arterioles from hypertensive subjects, 0.5 μM, 24 hours, DMEM
Description: FIGS. 8A-D show Western blots of mitochondrial isoLGs (A) in human arterioles from normotensive and hypertensive subjects (n=5), (B) development of mitochondria-targeted isoLG scavenger mito2HOBA and (C, D) SOD2 acetylation in human arterioles isolated from normotensive and hypertensive subjects and treated ex vivo with mito2HOBA (0.5 μM, 24 hours, DMEM). Data were normalized by Complex I levels (Sham is 100%). Data are mean±SEM. *P<0.01 vs Normotensive Sham, **P<0.01 vs Hypertensive (n=5).
Arterioles (100 to 200-μm diameter) were harvested from human mediastinal fat obtained from patients during cardiac surgery enrolled in the Risk of Oxygen during Cardiac Surgery (ROCS) randomized clinical trial with essential hypertension (BP>140/90 mmHg) and normotensive subjects as previously described for Western blot analysis of SOD2 and SOD2 acetylation. Full informed consent was obtained for all tissue samples.
Hypertension is associated with inactivation of mitochondrial deacetylase Sirt3 and hyperacetylation of mitochondrial superoxide dismutase (SOD2). To study the potential role of mitochondrial isoLGs in Sirt3 inactivation, we developed the mitochondria-targeted isoLG scavenger mito2HOBA (FIG. 8B). Mito2HOBA selectively accumulates in the mitochondria due to its lipophilic cation triphenylphosphonium. […]

[3] = test system: kidney (renal cortex and medulla); assay: Kidney histological analyses in LPS model
Description: Three months old C57BL/6J mice (25-28 g) were supplemented with mito2HOBA (drinking water, 0.1 g/L) for 72 hours prior to LPS injection (25 μg/g). […] (C) Histopathological scores of renal injuries as described in methods section. […] Data are mean±STD *P<0.01 vs LPS (n=6), *P<0.01 vs LPS (n=10).
FIGS. 6A-H show histological analysis of cellular injury in kidneys of control, mito2HOBA supplemented, LPS-injected and LPS+mito2HOBA-treated mice. Representative sections from control mice show normal glomeruli (g), proximal tubules (P), and distal tubules (*) in the cortex (A) and medulla (B).
Kidneys were harvested from mice and placed immediately in 10% formalin. Following fixation, kidneys were washed with saline, placed in 70% ethanol, and processed in the following sequence: 70% ethanol; 80% ethanol; 95% ethanol; 100% ethanol; 100% xylene. Then kidneys were embedded in POLY/Fin paraffin (ThermoFisher). Five-μm sections were cut using a Leitz 1512 microtome and were mounted on glass slides. Sections were stained with hematoxylin and eosin and were viewed using an Olympus IX70 microscope. Images were captured with a Jenoptix Progress C12 digital camera. Histopathological scores of kidneys were measured as follows: (0) No tubular injury; (1) <10% tubules injured; (2) 10-25% tubules injured; (3) 25-50% tubules injured; (4) 50-75% tubules injured; (5) >75% tubules injured.

kidney mitochondria = assay: Respiration of kidney mitochondria from angiotensin II-infused mice (respiratory control ratio); assay type: in vivo, mouse; conditions: Ang II plus mito2HOBA
Description: FIGS. 13A-B show mito2HOBA reduces mPTP opening and prevents mitochondrial dysfunc¬tion. C57B1/6J mice were infused with Ang II ([…]) and mito2HOBA in the drinking water (0.1 g/L). Following 14 days of Ang II infusion the animals were sacrificed and kidneys were isolated for mitochondrial studies. Addition of CaCl2 to mitochondria above Ca2+ retention capacity led to mPTP opening and mitochondria swelling. 71 Mitochondria isolated from Ang II-infused mice had significant reduction in Ca2+ capacity due to increased mPTP opening and CypD inhibitor Cyclosporine A (CsA) rescued Ca2+ retention capacity (A). Respiratory control ratio (State 3/State 4) was measured in isolated kidney mitochondria with glutamate and malate (B). Control level is 100%. (C) Renal ATP was measured in freshly isolated tissue by luciferase-based luminescent assay. 72 Results are mean±SEM. *P<0.01 vs Sham, **P<0.01 vs Angiotensin II (n=5).
The following respiration medium was used (in mM): 125 mM KCl, 10 mM MOPS (pH 7.2), 2 mM MgCl2, 2 mM KH2PO4, 10 mM NaCl, 1 mM EGTA, 0.7 mM CaCl2, 10 mM glutamate and 2 mM malate. […] Respiratory control ratio was calculated as the rate ratio State 3 to State 4, where State 4 is the rate after ADP phosphorylation.

[4] = test system: C57Bl/6J mice, Ang II-induced hypertension; assay: Blood pressure in angiotensin II model of hypertension (tail-cuff and telemetry); assay type: in vivo, mouse
From the text: FIGS. 10A-D show the effect of mito2HOBA on angiotensin II-induced hypertension and accumulation of mitochondrial isoLGs protein adducts. (A) Blood pressure tail-cuff measurements in male Sham or angiotensin II-infused mice supplied with mito2HOBA in drinking water (0.1 g/L) or equimolar amount of untargeted analog 2HOBA (0.17 mmol/L). (B) Telemetry studies of blood pressure in angiotensin II-infused mice supplied with mito2HOBA or plain water as a vehicle. (C) Representative LC/MS/MS chromatograms of isoLG-Lysyl-Lactam adduct; (D) isoLG-Lys-Lactam levels in kidney mitochondria isolated from Sham or angiotensin II-infused mice supplied with mito2HOBA. Results are mean±SEM. *P<0.01 vs Sham, **P<0.01 vs Ang II (n=8).
Hypertension was induced by angiotensin II ([…]) as described previously. To test the therapeutic potential of scavenging of mitochondrial isoLGs, wild-type C57B1/6J male and female mice (Jackson Labs) received saline or angiotensin II minipump placement, and provided with the plain water (vehicle) or mito2HOBA in the drinking water (0.1 g/liter). Blood pressure was monitored by the telemetry and tail-cuff measurements as previously described. The Vanderbilt Institutional Animal Care and Use Committee approved the procedures (Protocol M1700207). Simple randomization was used to select animals for sham, angiotensin II or mito2HOBA groups for equal chance of being allocated to treatment groups.
To test a functional role of mitochondrial isoLGs in hypertension, we used an Ang II model of hypertension, and monitored blood pressure by tail-cuff (FIG. 10A) and telemetry (FIG. 10B). […] Infusion of wild-type C57B1/6J mice with Ang II (0.7 mg/kg/day) increased systolic blood pressure to 162 mm Hg.

[5] = LPS plus mito2HOBA vs LPS alone

NCc1ccc(OCCCC[P+](c2ccccc2)(c2ccccc2)c2ccccc2)cc1O [mito2HOBA]
renal mitochondrial Ca2+-retention capacity (mPTP): completely prevented decline | tolerability [1]: well tolerated | SOD2 acetylation [2]: significantly reduced | renal cortex injury ([3]; LPS plus mito2HOBA): the cortex appeared normal | histopathological scores of renal injuries [3, 5]: significant reduction in cellular injury | renal medulla injury [3, 5]: the extent and degree of injury was less | kidney histology, mito2HOBA alone ([3]; mice supplemented with mito2HOBA without LPS): appeared normal | mitochondrial respiration supported by glutamate plus malate (kidney mitochondria): preserved | systolic blood pressure ([4]; Ang II 0.7 mg/kg/day, mito2HOBA 0.1 g/L drinking water, tail-cuff and telemetry (Ang II alone 162)): 140 mm Hg | blood pressure in control mice ([4]; mito2HOBA alone, no Ang II): did not affect
